Measurements from patent US20050238580A1 (priority 2002, published 2005).

Biological target: T1, intestinal lactase (Rattus norvegicus, UniProt Q02401)
T1 construct: hydrolysis of the 4-galactosyl-xylose administered is detected by the action of intestinal lactase; from tissue; host or cells: small-intestinal mucous membrane of living unweaned rats (in vivo); activity also measured post mortem in mucosa homogenate
T1 sequence (Q02401 868-1928): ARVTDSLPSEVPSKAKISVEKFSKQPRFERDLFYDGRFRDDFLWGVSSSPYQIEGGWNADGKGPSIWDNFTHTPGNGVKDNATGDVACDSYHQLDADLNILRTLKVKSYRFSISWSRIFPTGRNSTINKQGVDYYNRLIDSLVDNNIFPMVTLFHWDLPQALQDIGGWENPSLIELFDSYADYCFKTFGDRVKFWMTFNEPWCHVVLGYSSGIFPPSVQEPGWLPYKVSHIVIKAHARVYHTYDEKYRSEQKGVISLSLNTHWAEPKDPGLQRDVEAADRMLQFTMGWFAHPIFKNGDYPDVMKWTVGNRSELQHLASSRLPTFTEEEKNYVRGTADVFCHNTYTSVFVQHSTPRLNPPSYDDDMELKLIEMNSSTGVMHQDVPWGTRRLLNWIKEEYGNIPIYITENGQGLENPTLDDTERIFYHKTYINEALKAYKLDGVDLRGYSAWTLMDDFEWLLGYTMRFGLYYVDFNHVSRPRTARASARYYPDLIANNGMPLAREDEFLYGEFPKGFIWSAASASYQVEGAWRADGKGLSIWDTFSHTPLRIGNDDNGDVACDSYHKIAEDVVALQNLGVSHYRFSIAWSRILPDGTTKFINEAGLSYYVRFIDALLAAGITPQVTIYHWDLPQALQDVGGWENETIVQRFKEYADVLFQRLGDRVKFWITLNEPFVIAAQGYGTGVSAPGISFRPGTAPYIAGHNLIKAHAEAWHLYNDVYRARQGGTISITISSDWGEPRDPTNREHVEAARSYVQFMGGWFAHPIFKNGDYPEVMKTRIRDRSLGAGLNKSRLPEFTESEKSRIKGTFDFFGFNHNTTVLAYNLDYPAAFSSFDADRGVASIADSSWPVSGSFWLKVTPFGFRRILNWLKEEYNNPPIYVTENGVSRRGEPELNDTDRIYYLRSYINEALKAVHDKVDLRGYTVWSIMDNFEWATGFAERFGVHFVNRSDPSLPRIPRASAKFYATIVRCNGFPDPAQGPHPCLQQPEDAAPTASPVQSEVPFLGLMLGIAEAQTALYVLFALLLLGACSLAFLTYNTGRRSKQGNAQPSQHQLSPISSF
Experiment: Xylose in blood plasma after oral 4-galactosyl-xylose versus intestinal lactase activity in unweaned rats
Format: in vivo
Source text: Correlation between the excretion of xylose in urine and the presence of xylose in blood after oral administration of 4-galactosyl-xylose with intestinal lactase activity. This has been shown in unweaned rats by comparing during the growth of these animals the amount of xylose in plasma analyzed after orally administering to them 4-galactosyl-xylose with specific lactase activity evaluated postmortem in the intestinal mucous membrane. For this purpose, a group comprised of 60 12-day old unweaned rats belonging to two litters fasted for 6 hours by being separated from the mother. After this period of time passed, basal blood was extracted from each animal by means of a heart puncture and each rat was immediately administered 8 mg of 4-galactosyl-xylose diluted in 0.3 ml of distilled water by using an intraesophageal probe. 3 hours after the disaccharide was administered another blood sample was extracted. The blood plasma or supernatant fraction was obtained by centrifuging this sample and the xylose therein was titrated by calorimetric analysis with fluoroglucinol and using the plasma of the basal blood as the target. Immediately after the blood was extracted, four of the animals were sacrificed and the lactase activity in the intestinal mucous membrane was directly evaluated in the same manner as the one described in Example 1. […]

linear correlation coefficient (r) between xylose in blood plasma and intestinal lactase activity (unweaned rats aged 12 to 35 days, 8 mg oral, plasma 3 hours after administration): 0.98
SMILES: OCC1O[C@@H](O[C@@H]2COC(O)C(O)[C@H]2O)C(O)[C@@H](O)[C@H]1O (some centres unmarked)
dose dependence of amount of xylose in plasma (unweaned rats, oral doses between 4 and 16 mg in 0.3 ml of water): increases with the increase of the amount of 4-galactosyl-xylose
